The subject of the experiment is D2F2 WT tumor cells. Put plainly: D2F2 WT tumor challenge in Balb/c mice. It is filed as in vivo. How it is done:
Balb/c mice 6-8 weeks old, were immunized with G1 and G2 mice were treated with anti-PD-1 mAb (29F.1A12) (G1) or anti-PD-L1 mAb (10F.9G2) (G2 or with MVF-PD-L1 vaccine constructs [PD-L1(92-110)(G3) PD-L1(130-147)(G4)] prior to tumor challenge. Similarly, G10, G11 and G12 are control groups and were not treated prior to tumor cell challenge. G13, G14 and G15 mice were immunized with 100 ug MVF-HER-2(266-296)+100 ug MVF-HER-2(597-626)+ISA720 per mouse for G13, 100 ug MVF-PD-1 (92-110)+100 ug MVF-HER-2(266-296)+100 ug MVF-HER-2(597-626)+ISA720 per mouse for G14 and 100 ug MVF-PD-L1 (130-147)+100 ug MVF-HER-2(266-296)+100 ug MVF-HER-2(597-626)+ISA720 per mouse for G15. The mice were immunized up to 4 times before tumor challenge. […] All the mice had been monitored at least twice per week, and the tumors were measured with calipers as data indicated.
The tumor volumes were measured by calipers and calculated by formula: (length×width2)/2. […] All the peptides immunized groups of mice are shown with less tumor burden than PBS group and mAbs treated groups as well.
G0, G1 and G2 are control groups, mice in these groups were not treated before tumor cells challenge. Following challenge with D2F2 WT tumor cells, G0 mice were treated with PBS (i.p.) twice per week start from day 2 post challenge served as negative control, G1 and G2 mice were treated with anti-PD-1 mAb (29F.1A12) or anti-PD-L1 mAb (10F.9G2), respectively. Treatment for G1 and G2 mouse groups was also started from day 2 post tumor challenge, with 100 ug administered/mouse twice a week. G1 and G2 served as positive control. […] All the mice had been monitored at least twice per week, and the tumors were measured with calipers as data indicated (FIG. 26).
Mice were immunized with designed peptides vaccines as descripted in FIG. 26, which indicated as 1Y, 2Y, 3Y and 4Y here and with 3 weeks apart. […] And the mice were monitor at least twice per week, and the tumors were measured as shown in the data figures.
The tumor volumes were measured by calipers and calculated by formula: (length×width2)/2. […]

Where no end group is shown, it is not given here.

With “KLLSLIKGVIVHRLEGVEGPSLVTSEHELTCQAEGYPKAE (KLLSLIKGVIVHRLEGVEGPSLVTSEHELTCQAEGYPKAE-NH2) [PD-L1(130)]”, the mice survival entry (after day 45 of tumor challenge) was “about 60%”. The tumor volume entry (day 21 and day 28) was “smaller tumor volume than PBS negative control group and both of mAbs positive control groups”.

The values above are taken from patent US12589143B2, “Human anti-PD-L1 peptide vaccines and methods of their use” (priority 2019, dated 2026).
